Patent US10463753B2, “Radiolabeled monoacylglycerol lipase occupancy probe” (LUNDBECK LA JOLLA RESEARCH CENTER, INC., priority 2016, dated 2019)

Key:
[1] = In vitro plasma protein binding by ultrafiltration; format: in vitro ADME; details: rhesus monkey, read-out: Plasma free fraction (not protein bound)
[2] = Whole-body biodistribution and radiation dosimetry by PET imaging; format: in vivo, rhesus monkey
Method: The average PET image over the total acquisition duration (˜240 min) of a female rhesus is shown in FIG. 6 (abbreviations: CT=computerized tomography; gb=gallbladder; HU=Hounsfield units; PET=positron emission tomography; SUV=standardized uptake value; ub=urinary bladder; VOI=volume of interest) at three different levels through the body. […] The volumes of interest (VOIs) drawn over the organs identified as sources for the radiation dosimetry calculation can be seen on both average PET and its associated computed tomography (CT) image. […] Selected organs are labeled in the figure. The non-decay corrected (used for the dosimetry calculation) and decay corrected time activity curves of the 11 source organs are shown in FIG. 8 for both the female and male rhesus monkey. The curve values are expressed as percent of injected activity. The total absorbed doses in various target organs generated by OLINDA|EXM 1.1 software are presented in Table 4 for both adult male and adult female models in units of millisievert per megabecquerel (mSv/MBq) and roentgen equivalent man per millicurie (rem/mCi). Kidneys received the highest radiation dose in both the male and female rhesus. The effective dose equivalent (with ICRP-26 tissue weighting factors) and effective dose (with ICRP-60 tissue weighting factors) calculated for the whole body are also listed in Table 4.

[3] = Phase 0 study: parent fraction in blood/plasma by HPLC; format: in vivo; details: human blood
Method: (§1) An additional cohort of four healthy volunteers (two male, two female) was recruited for a whole body biodistribution cohort in which they underwent a single Compound 8F PET scan.
(§2) Blood samples were analyzed by HPLC to determine the fraction of intact parent compound at each time point. […] Free fraction of parent compound in plasma (not protein bound) was also measured by ultrafiltration and estimated to be 0.36±0.04% (n=10).

[4] = Free fraction of parent compound in plasma by ultrafiltration; format: in vitro ADME; details: human plasma, n=10; read-out: Free fraction of parent compound in plasma (not protein bound)
Method: as §2

[5] = Phase 0 whole-body biodistribution and radiation dosimetry by PET; format: in vivo, human
Method: as §1
Elimination via the urinary route was very low.
The following organs were identified as source organs: brain, heart, liver, gallbladder, intestines, kidneys, and urinary bladder. […] The average whole body effective dose (ED) was determined to be 2.19E-02±2.83E-04 mSv/MBq (8.10E-02±1.05E-03 rem/mCi) for adult female and 1.85E-02±7.07E-04 mSv/MBq (6.85E-02±2.62E-03 rem/mCi) for adult male, where the critical organ was determined to be the liver. Stated differently, average whole body ED for females=21.9 μSv/MBq, and for males=18.5 μSv/MBq (average for male and female=20.2 μSv/MBq).

[6] = arterial plasma
[7] = whole-body biodistribution cohort

With O=C(OC(C(F)(F)F)C(F)(F)F)N1CCN(Cc2ccc(Cl)cc2N2CCN(CC[18F])CC2)CC1 [Compound 8F, [^18F]1,1,1,3,3,3-hexafluoropropan-2-yl 4-(4-chloro-2-(4-(2-fluoroethyl)piperazin-1-yl)benzyl)piperazine-1-carboxylate] as the compound, how does the fraction unbound ([1]; first study) read?
The fraction unbound was 0.047 ± 0.006.

And the fraction unbound ([1]; second study)?
Its fraction unbound is 0.008 ± 0.0004.

What about the “Organ receiving the highest radiation dose” value ([2]; both male and female rhesus) of the same compound?
Its value is “Kidneys”.

And the “Organs with the highest uptake” value ([2]; i.v. bolus, whole-body PET)?
Its value is “liver, heart wall, lungs, kidney and brain”.

And the “Stability in blood ex vivo” value [3]?
Its value is “stable”.

What about the fraction unbound [4] of the same compound?
The fraction unbound was 0.0036 ± 0.0004.

And the “Average whole body ED” value ([5]; average for male and female)?
Its value is 20.2 μSv/MBq.

What about the “Average whole body ED” value ([5]; females) of the same compound?
Its value is 21.9 μSv/MBq.

And the “Average whole body ED” value ([5]; males)?
Its value is 18.5 μSv/MBq.

What about the “Elimination via the urinary route” value [5, 7] of the same compound?
The value was “very low”.

And the “Maximum injected dose (ID) in the intestine” value [5, 7]?
Its value is 6-7 % ID.

What about the “Maximum injected dose (ID) in the liver” value [5, 7] of the same compound?
Its value is 26-28 % injected dose (ID).

And the “Organ with highest radiation absorbed dose (critical organ)” value [5, 7]?
Its value is “liver”.

What about the “Route of elimination of the radiotracer” value [5, 7] of the same compound?
The value was “primarily via hepatobiliary route”.

And the Plasma level ([6]; by ~10 min post-dose)?
The Plasma level was ≤ 0.01 % of the injected dose.

And the Peak plasma concentration ([6]; single i.v. 2.25-4.99 mCi)?
Its Peak plasma concentration is ~0.04 % of the injected dose.

What about the “Time of peak plasma concentration post-dose” value ([6]; single i.v. dose) of the same compound?
Its value is ~5 min.
